Here are results for five molecules from patent publication US5385932A, “HMG-COA reductase inhibitor metabolites” (Merck & Co., Inc., priority 1992, dated 1995).

The target in one data set is T1, HMG--CoA reductase (Rattus norvegicus, UniProt P51639).
T1 construct: from tissue
T1 sequence (P51639 1-887): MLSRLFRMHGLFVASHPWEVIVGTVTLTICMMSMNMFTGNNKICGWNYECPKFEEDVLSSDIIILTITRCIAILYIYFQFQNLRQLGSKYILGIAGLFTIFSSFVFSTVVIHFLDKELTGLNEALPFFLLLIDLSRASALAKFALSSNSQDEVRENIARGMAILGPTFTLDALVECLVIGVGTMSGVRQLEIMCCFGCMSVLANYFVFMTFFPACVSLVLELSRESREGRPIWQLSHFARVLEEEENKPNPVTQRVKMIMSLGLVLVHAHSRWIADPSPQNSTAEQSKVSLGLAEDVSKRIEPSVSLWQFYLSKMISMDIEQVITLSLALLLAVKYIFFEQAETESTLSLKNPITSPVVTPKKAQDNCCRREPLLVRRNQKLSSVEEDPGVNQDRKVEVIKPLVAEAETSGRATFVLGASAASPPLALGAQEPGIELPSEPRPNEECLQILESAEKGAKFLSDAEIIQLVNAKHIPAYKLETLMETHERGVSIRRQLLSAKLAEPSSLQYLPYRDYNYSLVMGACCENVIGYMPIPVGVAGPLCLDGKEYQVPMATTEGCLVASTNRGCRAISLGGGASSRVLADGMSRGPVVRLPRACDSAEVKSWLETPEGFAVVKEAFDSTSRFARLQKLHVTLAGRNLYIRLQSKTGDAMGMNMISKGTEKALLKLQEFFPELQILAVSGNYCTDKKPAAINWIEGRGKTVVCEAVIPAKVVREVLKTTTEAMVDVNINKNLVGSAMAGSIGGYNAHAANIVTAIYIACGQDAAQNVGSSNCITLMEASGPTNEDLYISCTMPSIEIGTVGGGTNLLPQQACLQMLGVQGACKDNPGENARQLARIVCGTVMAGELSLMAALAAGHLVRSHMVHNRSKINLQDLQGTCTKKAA
Put plainly: intrinsic HMG-CoA reductase inhibition, in vitro protocol after alkaline hydrolysis of the lactone ring. Format: biochemical. The following applies: relative inhibitory potency from IC50 values; lactone ring opened by alkaline hydrolysis; lovastatin (hydroxy acid form) assigned 100. The protocol: After alkaline hydrolysis of the lactone ring the intrinsic HMG--CoA reductase inhibition activity was measured in an vitro protocol based on a method published in Proc. Natl. Acad. Sci. U.S.A. 77, 3957-3961 (1980).
The IC50 value of the test compound was compared with that of its parent determined simultaneously. For estimation of relative inhibitory potencies, lovastatin (in the form of its hydroxy acid) was assigned a value of 100.

Data set [1] in a line: stability of the free dihydroxy acid on standing. The note with it: on standing at room temperature; acid form can be maintained by increasing the pH above 7.0. It counts as physicochemical. The protocol: The sodium salt of the compound II from Example 4 is dissolved in 2 ml of ethanol-water (1:1; v:v) and added to 10 ml of 1N hydrochloric acid from which the dihydroxy acid is extracted with ethyl acetate. The organic extract is washed once with water, dried (Na2 SO4), and evaporated in vacuo with a bath temperature not exceeding 30° C. […] The dihydroxy acid form can be maintained by increasing the pH above 7.0.

Data set [2] in a line: incubation of 14C-labelled compound with rat liver microsomes, HPLC analysis of the label. It counts as in vitro ADME. The following applies: rat liver microsomes with NADPH and MgCl2, pH 7.4, 37°. The procedure:
Rat liver tissue (55.6 g) was homogenized in 0.05M Tris -1.15% KCl buffer at pH 7.5 (100 ml). The homogenates were centrifuged at 10,000 RPM for 20 '. The supernatants were filtered through glass wool and then centrifuged as 100,000 g for 90'. After the supernatant was discarded the pellet was suspended in 10 mM EDTA -1.15% KCl (100 ml) and recentrifuged at 100,000 g for 90 minutes. The supernatant was discarded and the pellet was resuspended in 0.25M sucrose (15 ml). Microsomes were stored at -80° under N2. Protein concentration (as determined by Biuret reaction) was 40 mg/ml of final suspension.
[^14 C] 6(R)-[2-[8(S)-(2,2-dimethylbutyryloxy)-2(S)-methyl-5(R)-hydroxy-6(S)-methyl-1,2,3,4, 4a(R),5,6,7,8,Sa(R)-decahydronaphthyl-1(S)]ethyl]-4(R)-hydroxy-3,4,5,6,-tetrahydro-2H-pyran-2-one (compound A)(40 μg) in 20 λ of DMSO was placed in a tube with rat liver microsomes (1 mg in 100 μl of broth) Mg Cl2 (30 μl of a 0.1M solution), NADPH (50 μl of a 0.01M solution) and phosphate buffer (100 λ of a.1M solution, pH 7.4).
Twenty five such tubes were incubated at 37° in a water bath, for 30 minutes. Acetone (1 ml) was added to each tube, followed by ethyl acetate (5 ml). The ethyl acetate was evaporated and the residue was reconstituted in methanol and fractionated by HPLC. […]

For the molecule `CCC(C)(C)C(=O)O[C@H]1C[C@](C)(O)C[C@@H]2CC[C@H](C)[C@H](CC[C@@H]3C[C@@H](O)CC(=O)O3)[C@H]21` [6(R)-[2-[8(S)-(2,2-dimethylbutyryloxy)-2(S),6(R)-dimethyl-6(R)-hydroxy-1,2,3,4,4a (R),5,6,7,8,8a (R)-decahydronaphthyl-1(S)]ethyl]-4(R)-hydroxy-3,4,5,6-tetrahydro-2H-pyran-2-one], the “Potency (Relative to Lovastatin = 100)” value on HMG--CoA reductase was found to be 2.
Still for that read-out and setting: next, `CCC(C)(C)C(=O)O[C@H]1C[C@](C)(O)[C@@H](O)[C@@H]2CC[C@H](C)[C@H](CC[C@@H]3C[C@@H](O)CC(=O)O3)[C@H]21` [6(R)-[2-[8(S)-(2,2-dimethylbutyryloxy)-2(S)-methyl-5(S),6(S)-dihydroxy-6(S)-methyl-1,2,3,4, 4a (R),5,6,7,8,8a (R)-decahydronaphthyl-1(S)]ethyl]-4(R)-hydroxy-3,4,5,6-tetrahydro-2H-pyran-2-one]: 40.
As to `CCC(C)(C)C(=O)O[C@H]1C[C@](C)(O)[C@@H](O)[C@@H]2CC[C@H](C)[C@H](CC[C@@H](O)C[C@@H](O)CC(=O)O)[C@H]21` [Example 10], the “stability of dihydroxy acid form (reversion to lactone)” value in data set [1] is “slowly reverts to the corresponding parent lactone”.
For the molecule `CCC(C)(C)C(=O)O[C@H]1C[C@@H](C)[C@@H](O)[C@@H]2CC[C@H](C)[C@H](CC[C@@H]3C[C@@H](O)CC(=O)O3)[C@H]21` [compound A, 6(R)-[2-[8(S)-(2,2-dimethylbutyryloxy)-2(S)-methyl-5(R)-hydroxy-6(S)-methyl-1,2,3,4, 4a(R),5,6,7,8,Sa(R)-decahydronaphthyl-1(S)]ethyl]-4(R)-hydroxy-3,4,5,6,-tetrahydro-2H-pyran-2-one], the remaining at 0.5 h in data set [2] (30 minutes, ethyl acetate extract, read-out: label representing unchanged starting material) is 52%.
Regarding `CCC(C)(C)C(=O)O[C@H]1C[C@@H](C)C[C@@H]2CC[C@H](C)[C@H](CC[C@@H]3C[C@@H](O)CC(=O)O3)[C@H]21` [compound B, 6(R)-[2-[8(S)-(2,2-dimethylbutyryloxy)-2(S),6(R)-dimethyl-1,2,3,4,4a(R),5,6,7,8, 8a(R)-decahydronaphthyl-1(S)]ethyl]-4(R)-hydroxy-3,4,5,6-tetrahydro-2H-pyran-2-one], the remaining at 1 h in data set [2] (60 minutes, methyl-t.butyl ether extract, read-out: label in the extract that was unchanged starting material) was 66%.
